Experimental data taken from the supplement of paper PMC8253809.

Legend:
iAstro [1] = astrocyte control; assay: EC50 (inflection of fitted growth-inhibition curve) (log10 M)
Method in brief: (§1)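 A pin tool was used to add a 10-point threefold dilution series (mean top concentration 35 μM), in triplicate, to patient-derived pHGG/DIPG cell lines and astrocyte controls seeded on 384-well plates coated with 1% Geltrex. After 7 days at 37 °C and 5% CO2 (3 days for iAstro), CellTiter-Glo luminescence was log2-transformed, normalised on each plate to % activity relative to negative (solvent) and positive control wells, and pooled. EC50 and maximal response (yFin) were read from the three- or four-parameter log-logistic fit with the lowest AICc.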

SUDIPGXXI [2] = diffuse intrinsic pontine glioma line; assay: as above
Method in brief: as §1

HGGX42 [3] = H3.3 G34R paediatric high-grade glioma line; assay: as above
Method in brief: as §1

HGGX39 [4] = paediatric high-grade glioma line; assay: as above
Method in brief: as §1

DIPGX7 [5] = H3.3 K27M diffuse intrinsic pontine glioma line; assay: as above
Method in brief: as §1

SUDIPGVI [6] = diffuse intrinsic pontine glioma line; assay: as above
Method in brief: as §1

DIPGX29 [7] = H3.3 K27M diffuse intrinsic pontine glioma line; assay: as above
Method in brief: as §1

DIPGX37 [8] = H3.3 K27M diffuse intrinsic pontine glioma line; assay: as above
Method in brief: as §1

SUDIPGXIII [9] = diffuse intrinsic pontine glioma line; assay: as above
Method in brief: as §1

SUDIPGIV [10] = diffuse intrinsic pontine glioma line; assay: as above
Method in brief: as §1

SUDIPGXVII [11] = diffuse intrinsic pontine glioma line; assay: as above
Method in brief: as §1

iAstro [12] = assay: maximal growth inhibition (yFin) relative to DMSO / staurosporine; higher = more efficacious
Method in brief: as §1

SUDIPGXXI [13] = assay: as above
Method in brief: as §1

HGGX42 [14] = assay: as above
Method in brief: as §1

HGGX39 [15] = assay: as above
Method in brief: as §1

DIPGX7 [16] = assay: as above
Method in brief: as §1

SUDIPGVI [17] = assay: as above
Method in brief: as §1

DIPGX29 [18] = assay: as above
Method in brief: as §1

DIPGX37 [19] = assay: as above
Method in brief: as §1

SUDIPGXIII [20] = assay: as above
Method in brief: as §1

SUDIPGIV [21] = assay: as above
Method in brief: as §1

SUDIPGXVII [22] = assay: as above
Method in brief: as §1

iAstro [23] = assay: area under dose-response curve of % growth inhibition (log2 RLU vs DMSO / staurosporine), 1e-11 to 1e-4 M (% x log10 M); higher = more growth inhibition
Method in brief: (§2)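 A 10-point threefold dilution series, mean top concentration 35 μM, was applied in triplicate to patient-derived pHGG/DIPG lines and astrocytes on 1% Geltrex-coated 384-well plates for 7 days (3 days for iAstro) at 37 °C, 5% CO2. Per-plate % activity between solvent and positive controls was calculated from log2-transformed CellTiter-Glo luminescence. Area under the curve followed from the trapezoid rule on a log-logistic fit, or on a smoothing spline when the sigmoid fit failed.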

HGGX2 [24] = paediatric high-grade glioma line; assay: as above
Method in brief: as §2

SUDIPGXIX [25] = diffuse intrinsic pontine glioma line; assay: as above
Method in brief: as §2

DIPGX9 = diffuse intrinsic pontine glioma line; assay: as above
Method in brief: as §2

SUDIPGXXI [26] = assay: as above
Method in brief: as §2

HABS [27] = astrocyte control; assay: as above
Method in brief: as §2

HGGX42 [28] = assay: as above
Method in brief: as §2

HGGX39 [29] = assay: as above
Method in brief: as §2

DIPGX7 [30] = assay: as above
Method in brief: as §2

HGGX6 [31] = H3.3 G34R paediatric high-grade glioma line; assay: as above
Method in brief: as §2

SUDIPGVI [32] = assay: as above
Method in brief: as §2

DIPGX29 [33] = assay: as above
Method in brief: as §2

DIPGX37 [34] = assay: as above
Method in brief: as §2

SUDIPGXIII [35] = assay: as above
Method in brief: as §2

SUDIPGIV [36] = assay: as above
Method in brief: as §2

SUDIPGXVII [37] = assay: as above
Method in brief: as §2

HGGX6 [38] = assay: EC50 (inflection of fitted growth-inhibition curve) (log10 M)
Method in brief: as §1

HGGX6 [39] = assay: maximal growth inhibition (yFin) relative to DMSO / staurosporine; higher = more efficacious
Method in brief: as §1

HGGX2 [40] = assay: EC50 (inflection of fitted growth-inhibition curve) (log10 M)
Method in brief: as §1

SUDIPGXIX [41] = assay: as above
Method in brief: as §1

HABS [42] = assay: as above
Method in brief: as §1

HGGX2 [43] = assay: maximal growth inhibition (yFin) relative to DMSO / staurosporine; higher = more efficacious
Method in brief: as §1

SUDIPGXIX [44] = assay: as above
Method in brief: as §1

HABS [45] = assay: as above
Method in brief: as §1

Compound: Fc1ccc(-c2c3cccc(C(F)(F)F)c3nn2Cc2ccc(F)cc2Cl)cc1
- EC50 (log10 M) (iAstro [1]): -5.13
- EC50 (log10 M) (SUDIPGXXI [2]): -5.13
- EC50 (log10 M) (HGGX42 [3]): -5.03
- EC50 (log10 M) (HGGX39 [4]): -5.05
- EC50 (log10 M) (DIPGX7 [5]): -5.33
- EC50 (log10 M) (SUDIPGVI [6]): -4.94
- EC50 (log10 M) (DIPGX29 [7]): -4.98
- EC50 (log10 M) (DIPGX37 [8]): -5.07
- EC50 (log10 M) (SUDIPGXIII [9]): -5.05
- EC50 (log10 M) (SUDIPGIV [10]): -5.12
- EC50 (log10 M) (SUDIPGXVII [11]): -5.16
- maximal growth inhibition (iAstro [12]): 33.9%
- maximal growth inhibition (SUDIPGXXI [13]): 112%
- maximal growth inhibition (HGGX42 [14]): 38.9%
- maximal growth inhibition (HGGX39 [15]): 38.1%
- maximal growth inhibition (DIPGX7 [16]): 40.8%
- maximal growth inhibition (SUDIPGVI [17]): 42.8%
- maximal growth inhibition (DIPGX29 [18]): 38.7%
- maximal growth inhibition (DIPGX37 [19]): 49.6%
- maximal growth inhibition (SUDIPGXIII [20]): 51.1%
- maximal growth inhibition (SUDIPGIV [21]): 60.3%
- maximal growth inhibition (SUDIPGXVII [22]): 30.9%
- area under dose-response curve (iAstro [23]): 38.3
- area under dose-response curve (HGGX2 [24]): 13.1
- area under dose-response curve (SUDIPGXIX [25]): 2.47
- area under dose-response curve (DIPGX9): 31.5
- area under dose-response curve (SUDIPGXXI [26]): 165
- area under dose-response curve (HABS [27]): 9.3
- area under dose-response curve (HGGX42 [28]): 40.2
- area under dose-response curve (HGGX39 [29]): 39.9
- area under dose-response curve (DIPGX7 [30]): 53.6
- area under dose-response curve (HGGX6 [31]): 6.34
- area under dose-response curve (SUDIPGVI [32]): 39.9
- area under dose-response curve (DIPGX29 [33]): 38.1
- area under dose-response curve (DIPGX37 [34]): 53
- area under dose-response curve (SUDIPGXIII [35]): 52.8
- area under dose-response curve (SUDIPGIV [36]): 67.1
- area under dose-response curve (SUDIPGXVII [37]): 40.7

Compound: CC(C)C[C@H](NC(=O)[C@H](Cc1ccccc1)NC(=O)c1cnccn1)B(O)O [BORTEZOMIB]
- EC50 (log10 M) (HGGX6 [38]): -7.84
- EC50 (log10 M) (SUDIPGVI [6]): -9.92
- EC50 (log10 M) (SUDIPGXIII [9]): -9.99
- EC50 (log10 M) (SUDIPGXVII [11]): -8.34
- maximal growth inhibition (HGGX6 [39]): 91.4%
- maximal growth inhibition (SUDIPGVI [17]): 95.6%
- maximal growth inhibition (SUDIPGXIII [20]): 96.5%
- maximal growth inhibition (SUDIPGXVII [22]): 91.2%
- area under dose-response curve (iAstro [23]): 461
- area under dose-response curve (HGGX2 [24]): 450
- area under dose-response curve (SUDIPGXIX [25]): 568
- area under dose-response curve (DIPGX9): 571
- area under dose-response curve (SUDIPGXXI [26]): 634
- area under dose-response curve (HABS [27]): 506
- area under dose-response curve (HGGX42 [28]): 312
- area under dose-response curve (HGGX39 [29]): 455
- area under dose-response curve (DIPGX7 [30]): 575
- area under dose-response curve (HGGX6 [31]): 347
- area under dose-response curve (SUDIPGVI [32]): 499
- area under dose-response curve (DIPGX29 [33]): 287
- area under dose-response curve (DIPGX37 [34]): 493
- area under dose-response curve (SUDIPGXIII [35]): 491
- area under dose-response curve (SUDIPGIV [36]): 581
- area under dose-response curve (SUDIPGXVII [37]): 392

Compound: CS[C@H]1SC[C@H]2C(=O)N(C)[C@@H](C(C)C)C(=O)OC[C@@H](NC(=O)c3cnc4ccccc4n3)C(=O)N[C@@H](C)C(=O)N(C)[C@@H]1C(=O)N(C)[C@@H](C(C)C)C(=O)OC[C@@H](NC(=O)c1cnc3ccccc3n1)C(=O)N[C@@H](C)C(=O)N2C [ECHINOMYCIN]
- EC50 (log10 M) (HGGX42 [3]): < -11
- EC50 (log10 M) (HGGX6 [38]): -8.49
- EC50 (log10 M) (SUDIPGVI [6]): -10.8
- EC50 (log10 M) (SUDIPGXIII [9]): -8.75
- EC50 (log10 M) (SUDIPGXVII [11]): -8.81
- maximal growth inhibition (HGGX42 [14]): 76.3%
- maximal growth inhibition (HGGX6 [39]): 75.4%
- maximal growth inhibition (SUDIPGVI [17]): 71%
- maximal growth inhibition (SUDIPGXIII [20]): 70.4%
- maximal growth inhibition (SUDIPGXVII [22]): 96.4%
- area under dose-response curve (iAstro [23]): 139
- area under dose-response curve (HGGX2 [24]): 383
- area under dose-response curve (SUDIPGXIX [25]): 520
- area under dose-response curve (DIPGX9): 510
- area under dose-response curve (SUDIPGXXI [26]): 577
- area under dose-response curve (HABS [27]): 371
- area under dose-response curve (HGGX42 [28]): 432
- area under dose-response curve (HGGX39 [29]): 507
- area under dose-response curve (DIPGX7 [30]): 488
- area under dose-response curve (HGGX6 [31]): 337
- area under dose-response curve (SUDIPGVI [32]): 399
- area under dose-response curve (DIPGX29 [33]): 489
- area under dose-response curve (DIPGX37 [34]): 508
- area under dose-response curve (SUDIPGXIII [35]): 335
- area under dose-response curve (SUDIPGIV [36]): 505
- area under dose-response curve (SUDIPGXVII [37]): 425

Compound: CO[C@H]1C[C@@H]2CC[C@@H](C)[C@@](O)(O2)C(=O)C(=O)N2CCCC[C@H]2C(=O)O[C@H]([C@H](C)C[C@@H]2CC[C@@H](OCCO)[C@H](OC)C2)CC(=O)[C@H](C)/C=C(\C)[C@@H](O)[C@@H](OC)C(=O)[C@H](C)C[C@H](C)/C=C/C=C/C=C/1C [EVEROLIMUS]
- EC50 (log10 M) (iAstro [1]): -4.83
- EC50 (log10 M) (HGGX2 [40]): -4.67
- EC50 (log10 M) (SUDIPGXIX [41]): -4.79
- EC50 (log10 M) (HABS [42]): -4.63
- EC50 (log10 M) (HGGX42 [3]): -4.78
- EC50 (log10 M) (HGGX39 [4]): -4.56
- EC50 (log10 M) (DIPGX7 [5]): -4.76
- EC50 (log10 M) (HGGX6 [38]): -4.78
- EC50 (log10 M) (DIPGX29 [7]): -4.57
- EC50 (log10 M) (DIPGX37 [8]): -4.6
- EC50 (log10 M) (SUDIPGXIII [9]): -4.77
- EC50 (log10 M) (SUDIPGIV [10]): -4.85
- EC50 (log10 M) (SUDIPGXVII [11]): -4.83
- maximal growth inhibition (iAstro [12]): 85%
- maximal growth inhibition (HGGX2 [43]): 94.8%
- maximal growth inhibition (SUDIPGXIX [44]): 90.9%
- maximal growth inhibition (HABS [45]): 86.6%
- maximal growth inhibition (HGGX42 [14]): 95.7%
- maximal growth inhibition (HGGX39 [15]): 97.2%
- maximal growth inhibition (DIPGX7 [16]): 98.8%
- maximal growth inhibition (HGGX6 [39]): 50%
- maximal growth inhibition (DIPGX29 [18]): 107%
- maximal growth inhibition (DIPGX37 [19]): 100%
- maximal growth inhibition (SUDIPGXIII [20]): 85.2%
- maximal growth inhibition (SUDIPGIV [21]): 87.7%
- maximal growth inhibition (SUDIPGXVII [22]): 73.8%
- area under dose-response curve (iAstro [23]): 96.6
- area under dose-response curve (HGGX2 [24]): 78.5
- area under dose-response curve (SUDIPGXIX [25]): 72
- area under dose-response curve (DIPGX9): 149
- area under dose-response curve (SUDIPGXXI [26]): 203
- area under dose-response curve (HABS [27]): 54.8
- area under dose-response curve (HGGX42 [28]): 107
- area under dose-response curve (HGGX39 [29]): 99.1
- area under dose-response curve (DIPGX7 [30]): 75.4
- area under dose-response curve (HGGX6 [31]): 62.9
- area under dose-response curve (SUDIPGVI [32]): 113
- area under dose-response curve (DIPGX29 [33]): 95.9
- area under dose-response curve (DIPGX37 [34]): 103
- area under dose-response curve (SUDIPGXIII [35]): 92.4
- area under dose-response curve (SUDIPGIV [36]): 97.4
- area under dose-response curve (SUDIPGXVII [37]): 74.4
